Laboratory results reported in the NIST ThermoML archive (doi:10.1021/je1001413).

Conditions: Liquid, Vibrating tube method

CC(C)CCCCCCCOC(=O)c1ccccc1C(=O)OCCCCCCCC(C)C
Conditions | mass density [kg/m3]
313.15 K, 100 kPa | 952.6
313.15 K, 200 kPa | 952.6
313.15 K, 400 kPa | 952.8
313.15 K, 620 kPa | 952.9
313.15 K, 800 kPa | 953
313.15 K, 1030 kPa | 953.1
313.15 K, 2010 kPa | 953.7
313.15 K, 3000 kPa | 954.3
313.15 K, 4000 kPa | 955
313.15 K, 5020 kPa | 955.5
313.15 K, 5990 kPa | 956.2
313.15 K, 7030 kPa | 956.7
313.15 K, 8000 kPa | 957.4
313.15 K, 9020 kPa | 957.9
313.15 K, 10010 kPa | 958.5
313.15 K, 15010 kPa | 961.4
313.15 K, 20000 kPa | 964.2
313.15 K, 25030 kPa | 967
313.15 K, 30000 kPa | 969.7
313.15 K, 35020 kPa | 972.2
313.15 K, 40020 kPa | 974.8
313.15 K, 45010 kPa | 977.2
313.15 K, 49970 kPa | 979.7
313.15 K, 55000 kPa | 982
313.15 K, 59980 kPa | 984.4
313.15 K, 64970 kPa | 986.6
323.15 K, 100 kPa | 945.4
323.15 K, 210 kPa | 945.5
323.15 K, 400 kPa | 945.6
323.15 K, 600 kPa | 945.7
323.15 K, 800 kPa | 945.9
323.15 K, 1000 kPa | 946
323.15 K, 2000 kPa | 946.6
323.15 K, 3030 kPa | 947.2
323.15 K, 4030 kPa | 947.9
323.15 K, 5020 kPa | 948.5
323.15 K, 6010 kPa | 949.1
323.15 K, 7000 kPa | 949.7
323.15 K, 8000 kPa | 950.3
323.15 K, 9010 kPa | 950.9
323.15 K, 10020 kPa | 951.6
323.15 K, 15000 kPa | 954.5
323.15 K, 20010 kPa | 957.5
323.15 K, 25030 kPa | 960.3
323.15 K, 30010 kPa | 963.2
323.15 K, 34970 kPa | 965.8
323.15 K, 40000 kPa | 968.5
323.15 K, 45000 kPa | 970.9
323.15 K, 49980 kPa | 973.5
323.15 K, 54980 kPa | 975.8
323.15 K, 60000 kPa | 978.3
323.15 K, 65000 kPa | 980.6
333.15 K, 100 kPa | 938.3
333.15 K, 200 kPa | 938.4
333.15 K, 400 kPa | 938.5
333.15 K, 630 kPa | 938.7
333.15 K, 800 kPa | 938.8
333.15 K, 1000 kPa | 938.9
333.15 K, 2010 kPa | 939.6
333.15 K, 3000 kPa | 940.2
333.15 K, 4000 kPa | 940.9
333.15 K, 5000 kPa | 941.5
333.15 K, 6000 kPa | 942.2
333.15 K, 7030 kPa | 942.8
333.15 K, 7980 kPa | 943.5
333.15 K, 9010 kPa | 944.1
333.15 K, 10030 kPa | 944.8
333.15 K, 14990 kPa | 947.9
333.15 K, 20000 kPa | 951
333.15 K, 25000 kPa | 953.8
333.15 K, 30020 kPa | 956.7
333.15 K, 34990 kPa | 959.4
333.15 K, 39970 kPa | 962.2
333.15 K, 45020 kPa | 964.8
333.15 K, 50000 kPa | 967.4
333.15 K, 55020 kPa | 969.8
333.15 K, 60000 kPa | 972.3
333.15 K, 65000 kPa | 974.7
343.15 K, 100 kPa | 931.2
343.15 K, 220 kPa | 931.3
343.15 K, 430 kPa | 931.5
343.15 K, 610 kPa | 931.6
343.15 K, 810 kPa | 931.8
343.15 K, 1000 kPa | 931.9
343.15 K, 2000 kPa | 932.6
343.15 K, 3000 kPa | 933.3
343.15 K, 3980 kPa | 934
343.15 K, 5010 kPa | 934.6
343.15 K, 5980 kPa | 935.3
343.15 K, 7000 kPa | 936
343.15 K, 7990 kPa | 936.6
343.15 K, 9020 kPa | 937.3
343.15 K, 9980 kPa | 937.9
343.15 K, 15010 kPa | 941.2
343.15 K, 19990 kPa | 944.3
343.15 K, 25010 kPa | 947.4
343.15 K, 29980 kPa | 950.4
343.15 K, 35030 kPa | 953.3
343.15 K, 40030 kPa | 956.1
343.15 K, 45010 kPa | 958.7
343.15 K, 50050 kPa | 961.4
343.15 K, 55000 kPa | 964
343.15 K, 60000 kPa | 966.5
343.15 K, 65020 kPa | 968.9
353.15 K, 100 kPa | 924.2
353.15 K, 200 kPa | 924.3
353.15 K, 410 kPa | 924.5
353.15 K, 630 kPa | 924.6
353.15 K, 800 kPa | 924.8
353.15 K, 1010 kPa | 924.9
353.15 K, 2000 kPa | 925.6
353.15 K, 3000 kPa | 926.3
353.15 K, 3980 kPa | 927
353.15 K, 4990 kPa | 927.7
353.15 K, 6000 kPa | 928.4
353.15 K, 7000 kPa | 929.1
353.15 K, 8010 kPa | 929.8
353.15 K, 9000 kPa | 930.5
353.15 K, 10010 kPa | 931.2
353.15 K, 15040 kPa | 934.6
353.15 K, 20000 kPa | 937.9
353.15 K, 24970 kPa | 941
353.15 K, 29980 kPa | 944.1
353.15 K, 35010 kPa | 947.1
353.15 K, 40000 kPa | 950
353.15 K, 45000 kPa | 952.7
353.15 K, 49990 kPa | 955.5
353.15 K, 55000 kPa | 958.1
353.15 K, 60010 kPa | 960.7
353.15 K, 65020 kPa | 963.2
363.15 K, 100 kPa | 917.2
363.15 K, 200 kPa | 917.3
363.15 K, 420 kPa | 917.4
363.15 K, 600 kPa | 917.6
363.15 K, 800 kPa | 917.7
363.15 K, 990 kPa | 917.9
363.15 K, 2000 kPa | 918.6
363.15 K, 2980 kPa | 919.4
363.15 K, 3960 kPa | 920.1
363.15 K, 4970 kPa | 920.9
363.15 K, 5990 kPa | 921.6
363.15 K, 7020 kPa | 922.3
363.15 K, 7980 kPa | 923
363.15 K, 9030 kPa | 923.8
363.15 K, 10000 kPa | 924.5
363.15 K, 15000 kPa | 928
363.15 K, 19990 kPa | 931.4
363.15 K, 25010 kPa | 934.7
363.15 K, 30020 kPa | 937.9
363.15 K, 34980 kPa | 940.9
363.15 K, 39990 kPa | 943.9
363.15 K, 44980 kPa | 946.8
363.15 K, 49990 kPa | 949.6
363.15 K, 55000 kPa | 952.3
363.15 K, 60040 kPa | 955
363.15 K, 64990 kPa | 957.6
